Data on 2 compounds can be found in patent US20140288077A1, “SUBSTITUTED 4-PHENOXYPHENOL ANALOGS AS MODULATORS OF PROLIFERATING CELL NUCLEAR ANTIGEN ACTIVITY” (ST. JUDE CHILDREN'S RESEARCH HOSPITAL, priority 2011, published 2014).

In assay [1] the test system is U2OS cells. Briefly: γH2AX staining by flow cytometry, T2AA and cisplatin. Conditions: 18 h, FIG. 28A.
Procedure: For γH2AX staining, cells were cultured at 4×10^5 cells/well of 12-well plates in 1 ml of medium, treated with drugs as indicated, trypsin-lifted and stained by using the FlowCellect H2A.X DNA Damage kit (FCCH025142, Millipore) according to the manufacturer's recommendations. All samples were filtered through 40-μm nylon mesh prior to running flow cytometry.
NT, no treatment. Error bars, S.D.
Assay [2] concerns U2OS cells. Description: U2OS cell viability with cisplatin and test compound (AlamarBlue, 4 days). The class given is cell-based. Conditions: cisplatin alone up to 10 μM, FIG. 21. The method, then: U2OS cells were cultured in DMEM in a 384-well plate (3000 cells/20 μL per well), treated with indicated dilution of cisplatin (see FIG. 21) and each indicated test compound (15 μM; 20 μL per well in DMEM), and cultured for 4-days. AlamarBlue reagent (Invitrogen, 4 μL per well) was added and signals were read per manufacturer's recommendation. Signals of wells contains no cells and cells with no drugs served as 0% and 100% viability, respectively.

Assay [3] relates to U2OS cells. Description: Growth of cells after treatment with cisplatin and T2AA and release (Alamar Blue). Particulars: FIG. 28B. A general note: Resazurin is reduced to fluorescent resorufin, in cell work by metabolically active cells.
Procedure: The cells were treated with drugs as indicated in a black (transparent flat bottom) 384-well or 96-well plate. Cellular viability was determined by using Alamar Blue reagent (Invitrogen) on an EnVision plate reader according to the manufacturer's recommendations and normalized with signal from wells of DMSO treatment=100% and of no cells=0%.
Viability of the cells was measured by Alamar Blue reagent, and signals were normalized with those of no cell well (0%) and cells with no drugs (100%). NT, no treatment. Error bars, S.D.
Another assay concerns XP2OS(SV40) cells. Description: TLS assay in mammalian cultured cells with cisplatin-cross-linked Pt-GTG plasmid. It is filed as cell-based. Particulars: 5 μM of T2AA. The method, then: The cisplatin-modified plasmid was constructed, and the TLS assay was performed as previously described (14) with some modifications. Briefly, two oligonucleotides, [NT] and [NT], were annealed and inserted between the sites of EcoRV and EcoRI in pUCS[…]. The resultant plasmid was designated as pUCS[…]+ BglII. […] This oligonucleotide has the cross-link at the underlined site of [NT]. An unmodified 13-mer oligonucleotide was used for the construction of control plasmid. These oligonucleotides were purified with HPLC and PAGE. […] The gapped duplex plasmid was incubated with a 2-fold molar excess of the purified 13-mer oligonucleotide, which is complementary to the gap sequence except for a bulge in the middle in the presence of ATP (1 mM) and T4 DNA ligase (New England Biolabs, Ipswich, MA) at 16° C. for 6 min. The covalently closed circle plasmid was purified with equilibrium centrifugation on a CsCl gradient. The plasmids with and without the cisplatin adduct are hereafter referred to as Pt-GTG and Mock-GTG, respectively. […] The plasmids were extracted from the cells by using the QIAprep spin miniprep kit (Qiagen), digested with the restriction endonuclease DpnI (New England Biolabs) to remove the unreplicated plasmids, and introduced into Escherichia coli strain DH5α. The E. coli was plated onto LB agar plates containing ampicillin, X-gal, and isopropyl-β-D-thioga-lactopyranoside. […] Therefore, TLS frequency (%) was defined as (number of blue colonies/number of total colonies)×100.

The test system of assay [4] is cells. Description: Cell cycle analysis by flow cytometry (PI). It is filed as cell-based. Particulars: 20 μM, 24 h, FIG. 25E.
The next assay concerns Polδ3. Briefly: Immunoblotting for Polδ3 in whole cell lysates. The class given is cell-based. Particulars: U2OS cells, FIG. 24B. The procedure:
The cells treated as indicated were washed twice with ice-cold PBS, collected in a spin tube, and lysed with radioimmune precipitation assay buffer supplemented with Halt protease inhibitor mixture and Halt phosphatase inhibitor mixture (Thermo Scientific) using approximately twice the volume of the cell pellet on ice for 0.5 h. Protein concentration was determined by a BCA assay (Thermo Scientific) according to the manufacturer's recommendation. Normalized amounts of samples were loaded on SDS-PAGE as indicated and electrotransferred to a PVDF membrane. The membrane was blocked with SuperBlock buffer (Thermo Scientific) and incubated with the indicated primary antibodies in SuperBlock at 4° C. overnight, rinsed with TBS, 0.05% Tween 20 three times for 10 min, incubated with the corresponding secondary IgG-HRP conjugate in SuperBlock at room temperature for 1 h, and rinsed with TBS, 0.05% Tween 20 for 15 min. Proteins probed on the membrane were visualized by chemiluminescence using WestPico reagent (Thermo Scientific) and developed on BioMax MR film (Eastman Kodak Co.).
In general terms: In western blotting, separated proteins are transferred to a membrane and probed.

For a further assay, the system named is HeLa cells. Description: Immunostaining of phospho-Chk1 and γH2AX (DNA replication stress). It is filed as cell-based. Particulars: 4 h, FIG. 26A.
Assay [5] has as its system cells. Briefly: Apoptosis analysis by flow cytometry (Annexin-V and PI). It is filed as cell-based. Also on record: dose or concentration left out as unconfirmed. Conditions: 5 days, FIG. 25G. (Flow cytometry measures light scatter and fluorescence of single cells or particles in a stream.)
Assay [6] has as its system U2OS cells. Description: Chromatin immunostaining of phospho(Ser33)RPA32. It is filed as cell-based. Conditions: 40 μM, 24 h, FIG. 26B. The method, then: The cells were fixed with 4% paraformaldehyde in PBS for 20 min at room temperature, rinsed three times with PBS for 5 min each, permeabilized with ice-cold methanol for 10 min at −20° C., and rinsed once with PBS for 5 min. The specimens were blocked with PBS containing 5% FBS and 0.03% Triton X-100 for 60 min, applied anti-PCNA antibody (1:3200) and anti-Polδ3 antibody (2.9 μg/ml) or anti-phospho(Ser^33)RPA32 antibody (4.0 μg/ml) in antibody buffer (PBS containing 1% FBS and 0.03% Triton X-100), incubated overnight in a humid chamber at 4° C., and rinsed with PBS three times for 5 min each at room temperature. The specimens were incubated with Alexa Fluor 555-conjugated goat anti-mouse IgG (Invitrogen) antibody (1:500) in the antibody buffer for 2 h in a humidified chamber at room temperature the dark, rinsed once with PBS for 5 min, incubated with Alexa Fluor 488-conjugated goat anti-rabbit IgG (Invitrogen) antibody (1:500) in the antibody buffer for 2 h in a humidified chamber at room temperature in the dark, and rinsed three times with PBS for 5 min. The coverslips were mounted VectaShield containing DAPI at 1 μg/ml (Vector Laboratories). Immunofluorescence imaging for chromatin was performed on a ClSi microscope (Nikon) with a Cascade 512B photomultiplier (Photometrics). Images were processed using EZC1 (Nikon) and Photoshop (Adobe) software. […]

In assay [7] the test system is U2OS cells. Description: DNA replication assay (BrdU incorporation). Conditions: titration of compound, 24 h, FIG. 25A-C. It is filed as cell-based. The method, then: DNA replication in U2OS and/or HeLa cells were analyzed by the rates of bromodeoxyuridine (BrdU) incorporation by a method reported previously (Taddei, A., et al. (1999) J. Cell Biol. 147, 1153-1166.). For immunofluorescence, cells were propagated at a subconfluent density onto a coverslip in a 6-well culture plate the day before the assay. […] During the last 15 min in the incubation period, BrdU was added at a concentration of 10 μM. Cells were washed with PBS and fixed with 4% paraformaldehyde in PBS for 15 min at room temperature. After permeabilization with 0.2% Triton X-100 in PBS for 15 min, cells were treated with 4N hydrochloric acid for 10 min and extensively rinsed with PBS. After blocking cells with 3% FBS in PBS for 20 min, anti-BrdU monoclonal antibody (1 μg/ml; clone 44, BD Pharmingen) was added to the cells and incubated at room temperature for 1 h. Cells were rinsed with PBS three times for 5 min each. Antimouse IgG conjugated with Alexa Fluor 555 (Invitrogen) was added and incubated at room temperature for 30 min. […] Fluorescence microscopy was done on an E800 microscope (Nikon) with a DXM1120 digital camera (Nikon). […] For quantitative analyses, BrdU incorporation was measured with the APC BrdU Flow Kit (BD Pharmingen) following the manufacturer's instructions. […] The populations of BrdU-positive cells (a) and mean BrdU intensity in S-phase cells (b) were recorded. […]

SMILES strings stand for the structures. Where “and” joins values, the source holds several entries; their conditions need not be identical. Equal values may be shown once.

In the case of `N.N.[Cl][Pt][Cl]` [cisplatin, reference compound], the “γH2AX level (DNA damage response)” value in the assay with U2OS cells [1] (single agent) is “significantly induced γH2AX”. In addition, the U2OS cell growth entry in the assay with U2OS cells [2] and in the assay with U2OS cells [3] (cisplatin alone up to 10 μM) was “not significantly affected” throughout.

Regarding `N[C@H](CO)Cc1cc(I)c(Oc2ccc(O)cc2)c(I)c1` [Compound T2AA], in the assay with U2OS cells [1] (T2AA and cisplatin together), the “γH2AX level (DNA damage response)” value is reported as “further increased much higher than the level combined from each single treatment”. Moreover, the “γH2AX level (DNA damage response)” value in the assay on U2OS cells [1] (single agent) was “induced γH2AX only a little”. Further, in the assay on XP2OS(SV40) cells, the “Mock GTG plasmid Raito (%) blue/total, Total/Average” value is 36.9 (100) % and the “Pt-GTG plasmid Raito (%) blue/total, Total/Average” value is reported as 5.3 (14.2) %. Besides, the “Mock GTG plasmid Raito (%) blue/total” value with XP2OS(SV40) cells (single experiments) is 36.0% and 34.5% and 41.0% and 37.9% and 38.1% and 34.2%. In addition, the cell cycle entry in the assay with cells [4] is given as “arrested cells at S-phase”. For the same compound, the “expression of Polδ3 protein in whole cell lysate” value in the assay with Polδ3 is recorded as “not reduced”. The “phosphorylation of Chk1 and H2AX” value with HeLa cells was “phosphorylated”. Also, in the assay on cells [5], the “apoptosis (Annexin-V / PI)” value is given as “increased cellular populations in early apoptosis but not necrosis”. Besides, the “immunofluorescence of phospho-RPA32 in nuclei” value in the assay on U2OS cells [6] is recorded as “increased”. Further, the “reduction of U2OS cell growth” value in the assay with U2OS cells [3] (10 μM T2AA alone, 18 h, then 3 days drug-free) is reported as “less than 10%”. Also, the U2OS cell growth entry in the assay with U2OS cells [3] (cisplatin and T2AA together, 18 h, then 3 days drug-free) is “significantly reduced”. Further, the BrdU incorporation result with U2OS cells [7] is listed as “inhibited the BrdU incorporation significantly in a dose-dependent manner”.
